One block for each molecule: values may come before it. Calls of active or inactive are those of the source. No cut-off for these calls is given here.
Legend:
[1] = Inhibition of N-type calcium channel in human IMR-32 cells assessed as intracellular calcium concentration by FLIPR; assay type: cell-based
[2] = Aqueous solubility in Japanese Pharmacopoeia at pH 6.8; assay type: physicochemical; conditions: aqueous Japanese Pharmacopoeia medium, pH 6.8, pH 6.8
[3] = target: Voltage-gated inwardly rectifying potassium channel KCNH2 (Homo sapiens, UniProt Q12809); experiment: Inhibition of human ERG expressed in CHO cells by Rb efflux assay
[4] = Aqueous solubility in Japanese Pharmacopoeia at pH 1.2; assay type: physicochemical; conditions: aqueous Japanese Pharmacopoeia medium, pH 1.2, pH 1.2
hERG (KCNH2) = hERG (KCNH2) (Homo sapiens, UniProt Q12809); experiment: Inhibition of human ERG expressed in CHO cells at 10 uM by Rb efflux assay; assay type: cell-based; conditions: CHO cells expressing human ERG
[5] = Inhibition of N-type calcium channel in human IMR-32 cells under holding potential at -90 mV state-biased condition by whole cell patch-clamp electrophysiological method
Rattus norvegicus [6] = experiment: Antiallodynic activity in Sprague-Dawley rat spinal nerve ligation model of neuropathic pain assessed as maximal reduction in mechanical allodynia at 30 mg/kg, po; assay type: functional, organism-based; set-up: dose 30 mg/kg
[7] = Inhibition of N-type calcium channel in human IMR-32 cells under holding potential at -70 mV inactivated state by whole cell patch-clamp electrophysiological method
Rattus norvegicus [8] = experiment: Antiallodynic activity in Sprague-Dawley rat spinal nerve ligation model of neuropathic pain assessed as reduction in mechanical allodynia at 3 to 30 mg/kg, po; assay type: functional, organism-based
IMR-32 = experiment: Selectivity ratio of IC50 for human ERG to IC50 for N-type calcium channel in human IMR-32 cells; assay type: cell-based
Cytochrome P450 2D6 = Cytochrome P450 2D6 (Homo sapiens, UniProt P10635); experiment: Inhibition of human recombinant CYP2D6 after 30 mins
Cytochrome P450 2C9 = Cytochrome P450 2C9 (Homo sapiens, UniProt P11712); experiment: Inhibition of human recombinant CYP2C9 after 45 mins
Cytochrome P450 2C19 = Cytochrome P450 2C19 (Homo sapiens, UniProt P33261); experiment: Inhibition of human recombinant CYP2C19 after 30 mins
CYP3A4 = CYP3A4 (Homo sapiens, UniProt P08684); experiment: Inhibition of CYP3A4 in human liver microsomes assessed as residual activity assessed as residual activity using midazolam as substrate preincubated for 30 mins by LC/MS/MS analysis; conditions: probe midazolam
Cytochrome P450 1A2 = target: T1, Cytochrome P450 1A2 (Homo sapiens, UniProt P05177); experiment: Inhibition of human recombinant CYP1A2 after 15 mins
T1 sequence (P05177 whole entry): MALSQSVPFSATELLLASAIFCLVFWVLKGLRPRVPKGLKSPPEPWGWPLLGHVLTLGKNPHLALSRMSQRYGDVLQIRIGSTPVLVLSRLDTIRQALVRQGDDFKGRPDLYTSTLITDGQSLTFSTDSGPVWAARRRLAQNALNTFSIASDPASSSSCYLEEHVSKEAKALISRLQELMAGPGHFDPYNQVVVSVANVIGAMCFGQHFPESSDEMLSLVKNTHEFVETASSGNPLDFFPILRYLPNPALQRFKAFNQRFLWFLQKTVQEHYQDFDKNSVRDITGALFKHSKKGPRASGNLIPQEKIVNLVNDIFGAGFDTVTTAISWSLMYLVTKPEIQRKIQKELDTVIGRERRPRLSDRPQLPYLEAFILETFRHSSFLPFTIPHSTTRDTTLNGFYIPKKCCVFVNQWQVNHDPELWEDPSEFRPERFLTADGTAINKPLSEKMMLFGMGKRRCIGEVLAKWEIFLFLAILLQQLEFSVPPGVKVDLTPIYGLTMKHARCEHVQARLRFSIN

Chain of hERG (KCNH2) (Q12809 whole entry): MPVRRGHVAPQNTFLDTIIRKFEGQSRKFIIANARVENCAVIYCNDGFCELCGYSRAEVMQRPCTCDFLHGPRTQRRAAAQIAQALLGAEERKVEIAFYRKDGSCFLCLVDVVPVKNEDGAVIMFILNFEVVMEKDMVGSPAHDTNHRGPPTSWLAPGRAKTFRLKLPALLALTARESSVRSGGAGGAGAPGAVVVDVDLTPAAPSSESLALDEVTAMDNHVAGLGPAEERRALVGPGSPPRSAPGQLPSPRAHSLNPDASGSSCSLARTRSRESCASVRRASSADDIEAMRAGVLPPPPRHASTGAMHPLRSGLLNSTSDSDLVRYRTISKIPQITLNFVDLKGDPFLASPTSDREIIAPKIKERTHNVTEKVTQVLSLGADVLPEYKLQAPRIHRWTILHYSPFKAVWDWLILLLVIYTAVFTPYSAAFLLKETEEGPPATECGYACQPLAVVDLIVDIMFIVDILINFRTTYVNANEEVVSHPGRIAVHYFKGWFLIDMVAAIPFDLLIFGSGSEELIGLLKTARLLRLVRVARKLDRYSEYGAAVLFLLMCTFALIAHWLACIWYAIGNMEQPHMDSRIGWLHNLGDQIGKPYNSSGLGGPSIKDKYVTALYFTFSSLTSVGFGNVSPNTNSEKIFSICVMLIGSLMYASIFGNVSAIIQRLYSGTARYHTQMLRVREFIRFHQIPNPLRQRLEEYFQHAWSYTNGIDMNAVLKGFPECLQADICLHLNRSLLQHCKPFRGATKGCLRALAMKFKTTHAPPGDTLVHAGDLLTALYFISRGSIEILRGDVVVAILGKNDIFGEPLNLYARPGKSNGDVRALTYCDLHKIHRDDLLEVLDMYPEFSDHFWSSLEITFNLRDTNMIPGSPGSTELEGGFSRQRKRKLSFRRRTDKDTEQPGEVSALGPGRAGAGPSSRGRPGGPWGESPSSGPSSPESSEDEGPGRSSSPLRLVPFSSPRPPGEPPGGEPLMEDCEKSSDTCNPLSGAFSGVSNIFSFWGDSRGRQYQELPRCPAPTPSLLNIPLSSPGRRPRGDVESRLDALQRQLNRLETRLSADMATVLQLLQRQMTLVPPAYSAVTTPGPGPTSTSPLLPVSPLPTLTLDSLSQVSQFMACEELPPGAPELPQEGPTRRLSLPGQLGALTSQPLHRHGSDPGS
Chain of Voltage-gated inwardly rectifying potassium channel KCNH2 (Q12809 whole entry): as above
Chain of Cytochrome P450 2C9 (P11712 whole entry): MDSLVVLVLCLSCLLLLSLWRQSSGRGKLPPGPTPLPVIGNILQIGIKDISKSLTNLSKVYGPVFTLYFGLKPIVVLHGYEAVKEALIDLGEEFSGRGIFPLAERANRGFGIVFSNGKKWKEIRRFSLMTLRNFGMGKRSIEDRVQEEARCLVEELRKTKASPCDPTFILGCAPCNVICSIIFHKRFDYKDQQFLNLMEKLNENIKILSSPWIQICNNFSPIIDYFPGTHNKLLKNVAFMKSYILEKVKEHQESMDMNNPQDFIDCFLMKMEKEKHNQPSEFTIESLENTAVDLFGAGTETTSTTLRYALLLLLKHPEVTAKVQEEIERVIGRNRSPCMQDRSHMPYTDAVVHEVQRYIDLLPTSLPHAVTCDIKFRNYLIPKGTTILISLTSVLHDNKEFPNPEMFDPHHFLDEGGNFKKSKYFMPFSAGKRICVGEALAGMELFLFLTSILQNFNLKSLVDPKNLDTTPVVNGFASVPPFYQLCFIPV
Chain of Cytochrome P450 2D6 (P10635 whole entry): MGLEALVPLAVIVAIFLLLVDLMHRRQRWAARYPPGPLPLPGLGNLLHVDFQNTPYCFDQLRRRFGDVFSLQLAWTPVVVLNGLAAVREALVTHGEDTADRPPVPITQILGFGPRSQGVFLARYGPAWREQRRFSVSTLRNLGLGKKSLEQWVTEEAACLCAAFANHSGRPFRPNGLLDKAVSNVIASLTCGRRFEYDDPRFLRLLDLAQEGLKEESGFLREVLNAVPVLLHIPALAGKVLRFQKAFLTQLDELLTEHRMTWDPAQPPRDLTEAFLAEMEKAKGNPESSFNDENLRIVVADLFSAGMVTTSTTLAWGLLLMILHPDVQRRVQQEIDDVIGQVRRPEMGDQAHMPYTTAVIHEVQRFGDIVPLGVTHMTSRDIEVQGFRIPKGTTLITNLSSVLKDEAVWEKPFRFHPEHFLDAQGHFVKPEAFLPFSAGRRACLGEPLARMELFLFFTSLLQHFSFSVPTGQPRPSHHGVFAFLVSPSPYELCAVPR
Chain of Cytochrome P450 2C19 (P33261 whole entry): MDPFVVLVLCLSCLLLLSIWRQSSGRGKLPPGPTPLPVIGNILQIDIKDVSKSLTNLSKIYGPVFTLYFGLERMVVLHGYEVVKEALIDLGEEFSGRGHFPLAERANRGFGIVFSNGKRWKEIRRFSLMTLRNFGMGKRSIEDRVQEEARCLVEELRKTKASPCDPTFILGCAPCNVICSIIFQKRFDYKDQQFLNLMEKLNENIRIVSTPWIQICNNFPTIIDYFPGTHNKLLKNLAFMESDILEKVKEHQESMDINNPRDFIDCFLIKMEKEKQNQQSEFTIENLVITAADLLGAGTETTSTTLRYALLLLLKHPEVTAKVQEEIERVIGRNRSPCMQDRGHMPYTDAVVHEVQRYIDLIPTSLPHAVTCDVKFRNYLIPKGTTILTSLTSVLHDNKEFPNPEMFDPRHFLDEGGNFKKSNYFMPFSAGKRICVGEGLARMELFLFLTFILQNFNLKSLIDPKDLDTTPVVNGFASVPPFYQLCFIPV
Chain of CYP3A4 (P08684 whole entry): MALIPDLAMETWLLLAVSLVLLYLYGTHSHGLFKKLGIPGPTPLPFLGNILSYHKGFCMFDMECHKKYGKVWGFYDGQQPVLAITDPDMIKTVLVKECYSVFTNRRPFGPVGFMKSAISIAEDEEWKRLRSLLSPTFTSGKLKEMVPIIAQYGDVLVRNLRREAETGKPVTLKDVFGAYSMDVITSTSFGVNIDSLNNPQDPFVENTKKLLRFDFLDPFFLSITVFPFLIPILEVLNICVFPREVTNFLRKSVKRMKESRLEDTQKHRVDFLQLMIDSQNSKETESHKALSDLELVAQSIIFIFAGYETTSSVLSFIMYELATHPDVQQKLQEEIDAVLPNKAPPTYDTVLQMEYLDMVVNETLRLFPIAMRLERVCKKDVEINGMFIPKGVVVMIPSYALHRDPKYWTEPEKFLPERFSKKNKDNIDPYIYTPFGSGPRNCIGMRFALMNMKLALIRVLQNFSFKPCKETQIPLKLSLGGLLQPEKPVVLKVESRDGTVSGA

SMILES: O=C(CNCC1(O)CCCCC1)N1CCc2ccccc2[C@H]1C1CCCCC1
- IC50 [1]: 1500 nM

SMILES: COc1cc(CN2CCN(CCCCCC(c3ccc(F)cc3)c3ccc(F)cc3)CC2)cc(OC)c1OC
- solubility [2]: < 1 µM
- IC50 [3]: 3400 nM
- IC50 [1]: 1100 nM
- solubility [4]: > 100 µM

SMILES: O=C(CNCCc1c(Cl)cccc1Cl)N1CCc2ccccc2C1C1CCCCC1 (stereo unspecified)
- IC50 [1]: 2400 nM

SMILES: O=C(CNCC1(O)CCCC1)N1CCc2ccccc2C1C1CCCCC1 (stereo unspecified)
- Ratio IC50 (IMR-32): 28.1
- IC50 [3]: 78600 nM
- IC50 [1]: 2800 nM

SMILES: COc1ccccc1CCNCC(=O)N1CCc2ccccc2C1C1CCCCC1 (stereo unspecified)
- IC50 (Cytochrome P450 2D6): 370 nM
- solubility [2]: > 100 µM
- IC50 (Cytochrome P450 2C9): 4800 nM
- IC50 (Cytochrome P450 2C19): 3000 nM
- activity at 30 min (CYP3A4): 53%
- IC50 (Cytochrome P450 1A2): 26000 nM
- IC50 [1]: 600 nM
- solubility [4]: > 100 µM

SMILES: O=C(O)c1ccc(CCNCC(=O)N2CCc3ccccc3C2C2CCCCC2)cc1 (stereo unspecified)
- inhibition at 10 µM (hERG (KCNH2)): 9%
- IC50 [1]: > 10000 nM

SMILES: COC(=O)c1ccc(CCNCC(=O)N2CCc3ccccc3C2C2CCCCC2)cc1 (stereo unspecified)
- inhibition at 10 µM (hERG (KCNH2)): 71.7%
- IC50 [1]: 2300 nM

Continued, in another order:

- IC50 [1]: 1300 nM
SMILES: O=C(CNCCc1ccccc1)N1CCc2ccccc2C1C1CCCCC1 (stereo unspecified)
- inhibition at 10 µM (hERG (KCNH2)): 57.8%

- IC50 [5]: 12700 nM
- IC50 [7]: 1700 nM
- IC50 [1]: 1000 nM
SMILES: O=C(CNCC1(O)CCCCC1)N1CCc2ccccc2[C@@H]1C1CCCCC1
- inhibition (Rattus norvegicus [6]): Active
- inhibition (Rattus norvegicus [8]): Active

- IC50 [1]: 3000 nM
SMILES: O=C(CNCCc1ccccc1O)N1CCc2ccccc2C1C1CCCCC1 (stereo unspecified)
- inhibition at 10 µM (hERG (KCNH2)): 54.4%

- IC50 [1]: 2600 nM
SMILES: O=C(CNCC1(O)CCCCCC1)N1CCc2ccccc2C1C1CCCCC1 (stereo unspecified)
- Ratio IC50 (IMR-32): 19.6
- IC50 [3]: 50100 nM

- IC50 [1]: 1300 nM
SMILES: O=C(CNCC1CCCCC1)N1CCc2ccccc2C1C1CCCCC1 (stereo unspecified)
- Ratio IC50 (IMR-32): 20
- IC50 [3]: 26000 nM

- solubility [2]: < 1 µM
- IC50 [1]: 430 nM
- solubility [4]: < 1 µM
SMILES: COc1c(OC(C)(C)C)cc(CN2CC(=O)N(CCCCCC(c3ccc(F)cc3)c3ccc(F)cc3)CC2=O)cc1OC(C)(C)C
- IC50 [3]: > 100000 nM

- IC50 [1]: 1700 nM
SMILES: O=C(CNCCC1(O)CCCCC1)N1CCc2ccccc2C1C1CCCCC1 (stereo unspecified)

Source: ChEMBL document CHEMBL3351320, “Discovery of novel tetrahydroisoquinoline derivatives as orally active N-type calcium channel blockers with high selectivity for hERG potassium channels” (Bioorg Med Chem, 2014)
